Values quoted from earlier work as cited in patent publication US20120269871A1, “SOLID STATE FORMS OF RASAGILINE SALTS” (ACTAVIS GROUP PTC EHF, priority 2009, published 2012).

## C#CCN[C@@H]1CCc2ccccc21.CS(=O)(=O)O [Rasagiline mesylate]
solvent: ethanol
  solubility in ethanol: freely soluble
solvent: isopropanol
  solubility in isopropanol: sparingly soluble
solvent: water
  solubility in water: freely soluble
